Results from US20100041642A1, “UREA INHIBITORS OF MAP KINASES” (LOCUS PHARMACEUTICALS, INC., priority 2008, published 2010).

Target: p38 (Homo sapiens, UniProt Q16539)
Assay: Protein Kinase Assay (33P incorporation from γ-[33P]ATP into GST-ATF-2)
Assay type: biochemical
Conditions: 2 nM p38, preincubated 20 min at 30° C.; 10 uM cold ATP, 2 uM GST-ATF2, 70 min; read-out: ACT. (Activity), IC50 category in Protein Kinase Assay
Procedure, shortened: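 Compounds preincubated 20 min at 30 °C with 2 nM p38; reaction started with 2 uM GST-ATF-2 (aa 19-96) and 10 uM ATP plus γ-[33P]ATP, pH 7.5, 70 min at 30 °C, 2% DMSO. Phosphoric acid stop; 33P-labelled substrate captured on phosphocellulose and counted by scintillation.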

Sequence of p38 (Q16539 whole entry): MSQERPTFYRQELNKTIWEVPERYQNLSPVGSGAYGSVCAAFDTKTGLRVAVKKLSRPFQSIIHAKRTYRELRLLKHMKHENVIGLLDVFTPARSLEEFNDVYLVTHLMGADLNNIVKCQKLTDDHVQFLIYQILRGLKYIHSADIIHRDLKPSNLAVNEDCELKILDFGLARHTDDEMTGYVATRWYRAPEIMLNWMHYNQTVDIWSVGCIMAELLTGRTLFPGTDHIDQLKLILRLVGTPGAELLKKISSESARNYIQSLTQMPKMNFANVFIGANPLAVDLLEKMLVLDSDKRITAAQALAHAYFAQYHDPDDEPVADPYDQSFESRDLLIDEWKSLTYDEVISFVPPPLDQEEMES

Row | IC50 | SMILES
1 | < 100 nM | Cc1ccc(NC(=O)Nc2sc(C(C)(C)C)cc2C(=O)N2CCNC(=O)C2(C)C)cc1-c1ccc(OCCCN2CCN(C)CC2)nc1 [1-(5-tert-butyl-3-(2,2-dimethyl-3-oxopiperazine-1-carbonyl)thiophen-2-yl)-3-(4-methyl-3-(6-(3-(4-methylpiperazin-1-yl)propoxy)pyridin-3-yl)phenyl)urea]
2 | < 100 nM | Cc1ccc(NC(=O)Nc2sc(C(C)(C)C)cc2C(=O)N2CCNC(=O)C2(C)C)cc1-c1ccc(OCCCc2ccccn2)nc1 [1-(5-tert-butyl-3-(2,2-dimethyl-3-oxopiperazine-1-carbonyl)thiophen-2-yl)-3-(4-methyl-3-(6-(3-(pyridin-2-yl)propoxy)pyridin-3-yl)phenyl)urea]
3 | < 100 nM | Cc1ccc(NC(=O)Nc2sc(C(C)(C)C)cc2C(=O)N2CCNC(=O)C2(C)C)cc1-c1ccc(OCCCN2CCOCC2)nc1 [1-(5-tert-butyl-3-(2,2-dimethyl-3-oxopiperazine-1-carbonyl)thiophen-2-yl)-3-(4-methyl-3-(6-(3-morpholinopropoxy)pyridin-3-yl)phenyl)urea]
4 | < 100 nM | Cc1ccc(NC(=O)Nc2sc(C(C)(C)C)cc2C(=O)N2CCNC(=O)C2(C)C)cc1-c1ccc(N2CCN(C)CC2)nc1 [1-(5-tert-butyl-3-(2,2-dimethyl-3-oxopiperazine-1-carbonyl)thiophen-2-yl)-3-(4-methyl-3-(6-(4-methylpiperazin-1-yl)pyridin-3-yl)phenyl)urea]
5 | < 100 nM | Cc1ccc(NC(=O)Nc2sc(C(C)(C)C)cc2C(=O)N2CCNC(=O)C2(C)C)cc1-c1ccc(CN2CCOCC2)nc1 [1-(5-tert-butyl-3-(2,2-dimethyl-3-oxopiperazine-1-carbonyl)thiophen-2-yl)-3-(4-methyl-3-(6-(morpholinomethyl)pyridin-3-yl)phenyl)urea]
6 | < 100 nM | Cc1ccc(NC(=O)Nc2sc(C(C)(C)C)cc2C(=O)N2CCNC(=O)C2(C)C)cc1-c1ccc(N2CCCCC2)nc1 [1-(5-tert-butyl-3-(2,2-dimethyl-3-oxopiperazine-1-carbonyl)thiophen-2-yl)-3-(4-methyl-3-(6-(piperidin-1-yl)pyridin-3-yl)phenyl)urea]
7 | < 100 nM | Cc1ccc(NC(=O)Nc2sc(C(C)(C)C)cc2C(=O)N2CCNC(=O)C2(C)C)cc1-c1ccc(OC2CCOCC2)nc1 [1-(5-tert-butyl-3-(2,2-dimethyl-3-oxopiperazine-1-carbonyl)thiophen-2-yl)-3-(4-methyl-3-(6-(tetrahydro-2H-pyran-4-yloxy)pyridin-3-yl)phenyl)urea]
8 | < 100 nM | Cc1ccc(-c2cc(NC(=O)Nc3sc(C(C)(C)C)cc3C(=O)N3CCNC(=O)C3(C)C)ccc2C)nn1 [1-(5-tert-butyl-3-(2,2-dimethyl-3-oxopiperazine-1-carbonyl)thiophen-2-yl)-3-(4-methyl-3-(6-methylpyridazin-3-yl)phenyl)urea]
9 | < 100 nM | Cc1ccc(NC(=O)Nc2sc(C(C)(C)C)cc2C(=O)N2CCNC(=O)C2(C)C)cc1-c1ccc(N2CCOCC2)nc1 [1-(5-tert-butyl-3-(2,2-dimethyl-3-oxopiperazine-1-carbonyl)thiophen-2-yl)-3-(4-methyl-3-(6-morpholinopyridin-3-yl)phenyl)urea]
10 | < 100 nM | Cc1ccc(NC(=O)Nc2sc(C(C)(C)C)cc2C(=O)N2CCNC(=O)C2(C)C)cc1-c1ccccn1 [1-(5-tert-butyl-3-(2,2-dimethyl-3-oxopiperazine-1-carbonyl)thiophen-2-yl)-3-(4-methyl-3-(pyridin-2-yl)phenyl)urea]
11 | < 100 nM | Cc1ccc(NC(=O)Nc2sc(C(C)(C)C)cc2C(=O)N2CCNC(=O)C2(C)C)cc1C#Cc1ccccn1 [1-(5-tert-butyl-3-(2,2-dimethyl-3-oxopiperazine-1-carbonyl)thiophen-2-yl)-3-(4-methyl-3-(pyridin-2-ylethynyl)phenyl)urea]
12 | < 100 nM | Cc1ccc(NC(=O)Nc2sc(C(C)(C)C)cc2C(=O)N2CCNC(=O)C2(C)C)cc1-c1cccnc1 [1-(5-tert-butyl-3-(2,2-dimethyl-3-oxopiperazine-1-carbonyl)thiophen-2-yl)-3-(4-methyl-3-(pyridin-3-yl)phenyl)urea]
13 | < 100 nM | Cc1ccc(NC(=O)Nc2sc(C(C)(C)C)cc2C(=O)N2CCNC(=O)C2(C)C)cc1-c1ccncc1 [1-(5-tert-butyl-3-(2,2-dimethyl-3-oxopiperazine-1-carbonyl)thiophen-2-yl)-3-(4-methyl-3-(pyridin-4-yl)phenyl)urea]
14 | < 100 nM | Cc1ccc(NC(=O)Nc2sc(C(C)(C)C)cc2C(=O)N2CCNC(=O)C2(C)C)cc1-c1ncccn1 [1-(5-tert-butyl-3-(2,2-dimethyl-3-oxopiperazine-1-carbonyl)thiophen-2-yl)-3-(4-methyl-3-(pyrimidin-2-yl)phenyl)urea]
15 | < 100 nM | COc1ccc(-c2ccc(C)c(NC(=O)Nc3sc(C(C)(C)C)cc3C(=O)N3CCNC(=O)C3(C)C)c2)cn1 [1-(5-tert-butyl-3-(2,2-dimethyl-3-oxopiperazine-1-carbonyl)thiophen-2-yl)-3-(5-(6-methoxypyridin-3-yl)-2-methylphenyl)urea]
16 | < 100 nM | Cc1nnc(CN2CCN(C(=O)c3cc(C(C)(C)C)sc3NC(=O)Nc3ccc(C)c(-c4ccncc4)c3)C(C)(C)C2=O)o1 [1-(5-tert-butyl-3-(3,3-dimethyl-1-((5-methyl-1,3,4-oxadiazol-2-yl)methyl)-2-oxopiperazine-4-carbonyl)thiophen-2-yl)-3-(4-methyl-3-(pyridin-4-yl)phenyl)urea]
17 | < 1000 nM | Cc1ccc(NC(=O)Nc2sc(C(C)(C)C)cc2C(=O)N2CCN(C(=O)CN(C)C)CC2)cc1-c1cccnc1 [1-(5-tert-butyl-3-(4-(2-(dimethylamino)ethanoyl)piperazine-1-carbonyl)thiophen-2-yl)-3-(4-methyl-3-(pyridin-3-yl)phenyl)urea]
18 | < 1000 nM | CCc1ccc(-c2cc(NC(=O)Nc3sc(C(C)(C)C)cc3C(=O)N3CCN(CCN(C)C)C(=O)C3(C)C)ccc2C)cn1 [1-(5-tert-butyl-3-(4-(2-(dimethylamino)ethyl)-2,2-dimethyl-3-oxopiperazine-1-carbonyl)thiophen-2-yl)-3-(3-(6-ethylpyridin-3-yl)-4-methylphenyl)urea]
19 | < 100 nM | Cc1ccc(NC(=O)Nc2sc(C(C)(C)C)cc2C(=O)N2CCN(CCN(C)C)C(=O)C2(C)C)cc1-c1cccnc1 [1-(5-tert-butyl-3-(4-(2-(dimethylamino)ethyl)-2,2-dimethyl-3-oxopiperazine-1-carbonyl)thiophen-2-yl)-3-(4-methyl-3-(pyridin-3-yl)phenyl)urea]
20 | < 100 nM | COc1ccc(-c2cc(NC(=O)Nc3sc(C(C)(C)C)cc3C(=O)N3CCN(CCO)C(=O)C3(C)C)ccc2C)cn1 [1-(5-tert-butyl-3-(4-(2-hydroxyethyl)-2,2-dimethyl-3-oxopiperazine-1-carbonyl)thiophen-2-yl)-3-(3-(6-methoxypyridin-3-yl)-4-methylphenyl)urea]
21 | < 100 nM | CC(=O)N1CCN(C(=O)c2cc(C(C)(C)C)sc2NC(=O)Nc2ccc(C)c(-c3cccnc3)c2)CC1 [1-(5-tert-butyl-3-(4-ethanoylpiperazine-1-carbonyl)thiophen-2-yl)-3-(4-methyl-3-(pyridin-3-yl)phenyl)urea]
22 | < 100 nM | COc1ccc(-c2cc(NC(=O)Nc3sc(C(C)(C)C)cc3C(=O)N3CCC(=O)N(C)CC3)ccc2C)cn1 [1-(5-tert-butyl-3-(4-methyl-5-oxo-1,4-diazepane-1-carbonyl)thiophen-2-yl)-3-(3-(6-methoxypyridin-3-yl)-4-methylphenyl)urea]
